Test results taken from patent publication US20240016744A1, “NALTREXONE AND RISPERIDONE COMBINATION SUSTAINED-RELEASE COMPOSITION” (SHENZHEN SCIENCARE MEDICAL INDUSTRIES CO.,, priority 2020, published 2024).

System: methylamphetamine-induced behavioral sensitization (spontaneous activities of the mice)
Assay: Animal pharmacodynamic evaluation: methylamphetamine-induced behavioral sensitization, spontaneous activity
Assay type: in vivo, SD mice
Details: methylamphetamine 2 mg/kg i.p., no implant, from day 7; FIG. 9
Description: All mice were bred under the same conditions. The product of the present disclosure was surgically implanted into each mouse in a model group before an experiment. Except implantation of the product of the present disclosure, other experimental conditions of a positive control group were the same as those of the model group. Mice in a negative control group were normally bred without undergoing experimental treatment. Behavioral differences among the model group, the positive control group, and the negative control group were observed during the experiment.
36 SD mice weighing […], half male and half female, were taken. The mice were randomly divided into 3 groups: a positive control group, a negative control group, and a model group. The compound sustained-release preparation (prepared in Example 1) was implanted into the back of each mouse in the model group before administration, and a challenge experiment was carried out on the second day after surgery.
During the formative period, methylamphetamine (2 mg/kg) was daily intraperitoneally injected into each mouse in the positive control group and the model group, an equal amount of normal saline was intraperitoneally injected into each mouse in the negative control group for 7 consecutive days. During the conversion period, the drug was withdrawn for 7 days without any treatment. […]

CN[C@@H](C)Cc1ccccc1 [methylamphetamine]
activities of the mice in the positive control group (behavioral sensitization): significantly increased (P<0.05)
